Measured values: PMC3730168, “Thiol Redox Sensitivity of Two Key Enzymes of Heme Biosynthesis and Pentose Phosphate Pathways: Uroporphyrinogen Decarboxylase and Transketolase” (Oxidative Medicine and Cellular Longevity, 2013)

What was measured:
[1] = biological target: T1, Tkl1p (Saccharomyces cerevisiae, UniProt P23254); test: fluorescent labelling with eosin-GSH, eosin absorbance at […] nm; format: binding; details: covalent; labelled compound; excess DiEGSSG
T1 construct: gene TKL1; recombinant, codon-optimised synthetic DNA, C-terminal poly-His tag, E. coli, Ni-Sepharose (Abyntek Biopharma); homodimer
T1 sequence (P23254 1-680): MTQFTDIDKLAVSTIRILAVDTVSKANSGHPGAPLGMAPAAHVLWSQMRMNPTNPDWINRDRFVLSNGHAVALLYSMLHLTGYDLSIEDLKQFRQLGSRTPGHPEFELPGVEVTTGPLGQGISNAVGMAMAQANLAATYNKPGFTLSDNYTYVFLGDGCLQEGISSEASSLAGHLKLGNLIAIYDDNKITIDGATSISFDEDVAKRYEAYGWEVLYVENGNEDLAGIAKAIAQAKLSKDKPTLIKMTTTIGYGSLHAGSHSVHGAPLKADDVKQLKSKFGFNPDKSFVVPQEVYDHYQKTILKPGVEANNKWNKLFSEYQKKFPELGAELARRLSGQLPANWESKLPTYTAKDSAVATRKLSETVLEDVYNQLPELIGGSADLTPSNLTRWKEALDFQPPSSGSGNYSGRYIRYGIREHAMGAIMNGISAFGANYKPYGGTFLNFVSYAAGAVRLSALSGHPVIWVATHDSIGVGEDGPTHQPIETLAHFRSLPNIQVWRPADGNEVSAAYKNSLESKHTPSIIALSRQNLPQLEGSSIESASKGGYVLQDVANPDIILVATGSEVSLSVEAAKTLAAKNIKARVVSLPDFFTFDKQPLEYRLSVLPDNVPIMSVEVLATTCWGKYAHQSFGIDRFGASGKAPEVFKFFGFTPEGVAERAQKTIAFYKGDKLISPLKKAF

[2] = biological target: T2, Hem12p (Saccharomyces cerevisiae, UniProt P32347); test: as above; format: binding; details: covalent; labelled compound; excess DiEGSSG
T2 construct: gene HEM12; recombinant, codon-optimised synthetic DNA, C-terminal poly-His tag, E. coli, Ni-Sepharose (Abyntek Biopharma)
T2 sequence (P32347 1-362): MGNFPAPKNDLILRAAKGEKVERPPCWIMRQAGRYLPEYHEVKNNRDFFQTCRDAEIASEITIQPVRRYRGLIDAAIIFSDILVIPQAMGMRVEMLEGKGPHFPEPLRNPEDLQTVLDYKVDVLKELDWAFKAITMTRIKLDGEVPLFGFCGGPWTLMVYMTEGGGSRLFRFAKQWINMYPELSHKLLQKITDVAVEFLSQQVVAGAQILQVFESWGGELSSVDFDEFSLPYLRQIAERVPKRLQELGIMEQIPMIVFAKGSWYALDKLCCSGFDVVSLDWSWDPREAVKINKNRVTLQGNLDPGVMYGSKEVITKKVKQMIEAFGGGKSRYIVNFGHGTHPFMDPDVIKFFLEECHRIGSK

## O=C(O)CNC(=O)[C@H](CSSC[C@H](NC(=O)CC[C@H](NC(=S)Nc1ccc(-c2c3cc(Br)c(=O)c(Br)c-3oc3c(Br)c(O)c(Br)cc23)c(C(=O)O)c1)C(=O)O)C(=O)NCC(=O)O)NC(=O)CC[C@H](NC(=S)Nc1ccc(-c2c3cc(Br)c(=O)c(Br)c-3oc3c(Br)c(O)c(Br)cc23)c(C(=O)O)c1)C(=O)O [DiEGSSG, dieosinediglutathione]
[1]
  moles of fluorescent moiety per mole protein: ~ 0.35 mol/mol
[2]
  moles of fluorescent glutathione per mole protein: ~ 1.5 mol/mol
